Test results taken from patent publication US11518981B2, “Methods of enhancing engraftment activity of hematopoietic stem cells” (CHILDREN'S HOSPITAL MEDICAL CENTER, priority 2017, dated 2022).

Key:
[1] = test system: human MPB derived CD34^+ cells; experiment: human CD45^+ engraftment in bone marrow of NSG mice after primary transplant (1 T); type: in vivo; conditions: 24 weeks post 1 T; 72-96 h LV and RV groups
Experimental: Freshly isolated CD34^+ cells were used, wherever possible, and especially for 0 h controls. In some experiments cryopreserved CD34^+ cells were thawed for 4 hrs in IMDM containing cytokines, then washed and used for experiments. […] Cells were kept in culture for a total of either 18-24 hours, 36-42 hours or 72-96 hours. For RV transduction, human CD34^+ cells were pre-stimulated for 2 days (42-48 hours) hours at a cell density of 3×10^5 cells/ml. Retronectin coated tissue culture flasks or plates were preloaded at room temperature with GALV pseudotyped RV twice for one hour each. The vector supernatant was removed and the cells were loaded into the RV loaded retronectin coated flasks. RV transduction was also performed twice 24 hours apart at an MOI ranging from 5 to 10. After total of 72-96 hours in culture, cells were harvested. LV and RV transductions were performed at 37° C. under 5% CO2 in ambient oxygen concentrations (20% 02). For some experiments, LV was added just like RV after 2 days of pre-stimulation. p38 MAPK inhibitors Birb 796 (600 nM), Vx-745 (1 μM), or LY 2228820 (500 nM) (all from Selleckchem) were supplemented to the culture media. […] Human engraftment was analyzed in bone marrow (BM), via BM aspirates performed at 6 and 12 weeks from left and right femurs. […]

CD34^+ cells = experiment: total CD34^+ cell number and viability (trypan blue); type: cell-based, human; conditions: ex vivo culture with/without p38i
Experimental: Freshly isolated CD34^+ cells were used, wherever possible, and especially for 0 h controls. In some experiments cryopreserved CD34^+ cells were thawed for 4 hrs in IMDM containing cytokines, then washed and used for experiments. CD34^+ cells were transduced in X-VIVO 10™ (Lonza) medium supplemented with 2% human serum albumin (Baxter), recombinant human Flt-3 ligand (Flt3-L; 200 ng/mL), stem cell factor (SCF; 300 ng/mL), thrombopoietin (TPO; 100 ng/mL) (all cytokines obtained from PeproTech), and penicillin-streptomycin (ThermoFisher Scientific) on non-tissue culture treated plates coated with retronectin (4 μg/cm2, CH-296, Takara Bio Inc.). For LV transduction, CD34^+ cells (2-5×10^6/mL) were pre-stimulated for 4-8 hours and transduced twice with lentivirus vector (LV) maintaining the vector concentration between 5×10^7 to 1×10^8 infectious unit (IU) per mL of media volume, 12-14 hours apart. Cells were kept in culture for a total of either 18-24 hours, 36-42 hours or 72-96 hours. For RV transduction, human CD34^+ cells were pre-stimulated for ˜2 days (42-48 hours) hours at a cell density of 3×10^5 cells/ml. Retronectin coated tissue culture flasks or plates were preloaded at room temperature with GALV pseudotyped RV twice for one hour each. The vector supernatant was removed and the cells were loaded into the RV loaded retronectin coated flasks. […]

γH2AX = experiment: DNA damage response (γH2AX, 53BP1) by immunofluorescence and flow cytometry; type: cell-based, human
Experimental: For EdU incorporation assay, cells were incubated with 10 μM EdU throughout the culture period and the CLICK-IT® Plus EdU Pacific Blue Flow Cytometry Assay Kit (ThermoFisher Scientific C10636) was used for staining. […] Samples were run through a FACSCANTOTM, FORTESSATM, or LSR 2 flow cytometers (BD Biosciences), and the data was analyzed by […] software (BD). […] II cell sorter. FACS sorted CD34+38-90+ cells were fixed in 2% paraformaldehyde and permeabilized using 0.1% […] polyether alcohol, Sigma-Aldrich). […] Cells were counterstained and mounted with […]® antifade mounting medium with DAPI (H-1200 Vector Laboratories). Images were obtained using a Nikon 90i upright microscope.

`Cc1ccc(-n2nc(C(C)(C)C)cc2NC(=O)Nc2ccc(OCCN3CCOCC3)c3ccccc23)cc1` [p38i, 1-[5-tert-butyl-2-(4-methylphenyl)pyrazol-3-yl]-3-[4-(2-morpholin-4-ylethoxy)naphthalen-1-yl]urea] was tested, and the “human CD45^+ cell engraftment in the NSG BM” value [1] was “improved”, the “total number of CD34^+ cells, or viability in vitro” value (CD34^+ cells) was “no effect” and the “γH2AX levels in the transduced HSCs” value (γH2AX; 72 h, RV transduced cycling HSCs) was “significantly reduced”. The “percentage of γH2AX^+ cells” value (γH2AX; flow cytometry, 36-42 h and 72-96 h groups) was “significantly reduced” and the “γH2AX MFI and number of γH2AX positive HSC” value (γH2AX; flow cytometry, 24 h) was “returned to levels seen in unmanipulated HSCs”.
